Laboratory results reported in patent US12281102B2, “Inhibitors of APOL1 and methods of using same” (Vertex Pharmaceuticals Incorporated, priority 2020, dated 2025).

Molecular target: T1, G1 APOL1 (Homo sapiens, UniProt O14791, I384M/S342G)
T1 construct: expressed in transfected cells
T1 sequence (O14791 28-398 S342G/I384M): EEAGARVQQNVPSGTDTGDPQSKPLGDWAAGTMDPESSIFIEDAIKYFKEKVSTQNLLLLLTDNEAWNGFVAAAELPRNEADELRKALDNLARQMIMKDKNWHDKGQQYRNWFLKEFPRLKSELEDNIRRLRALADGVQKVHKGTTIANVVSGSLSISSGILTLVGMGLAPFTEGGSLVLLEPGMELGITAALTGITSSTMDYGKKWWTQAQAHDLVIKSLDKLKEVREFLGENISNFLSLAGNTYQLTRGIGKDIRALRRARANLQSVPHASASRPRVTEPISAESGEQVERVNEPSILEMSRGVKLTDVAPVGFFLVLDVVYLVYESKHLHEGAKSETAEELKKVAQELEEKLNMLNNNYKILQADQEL
Experiment: Acute APOL1 Thallium Assay with inducible stable clones of HEK 293 cells
Assay type: cell-based
Conditions: HEK 293 T-Rex inducible stable clone expressing G1 APOL1; read-out: Thallium Assay (IC50)
Text: Acute APOL1 Thallium Assay with Inducible Stable Clones of HEK 293 Cells
Apolipoprotein L1 (APOL1) proteins form potassium-permeable cation pores in the plasma membrane. APOL1 risk variants (G1 and G2) induce greater potassium flux than G0 in HEK293 cells. This assay exploits the permeability of thallium (T1+) through ligand-gated potassium channels. The dye produces a bright fluorescent signal upon binding to T1+ conducted through potassium channels. The intensity of the T1+ signal is proportional to the number of potassium channels in the open state. Therefore, it provides a functional indication of the potassium channel activities. During the initial dye-loading step, the T1+ indicator dye as an acetoxymethyl (AM) ester enters the cells through passive diffusion. Cytoplasm esterases cleave the AM ester and relieve its active thallium-sensitive form. The cells are then stimulated with T1+. The increase of fluorescence in the assay represents the influx of T1+ into the cell specifically through the potassium channel (i.e. through APOL1 pores), providing a functional measurement of potassium channel/pore activity. The Thallium assay is conducted with cells expressing G1 APOL1.
APOL1 Cell Line (HEK T-Rex Stable Inducible Cell Line)
• HEK T-Rex System • Tetracycline (Tet) inducible mammalian expression system. • Stably express the Tet repressor to regulate transcription. • Expression under the full-length CMV promoter. • APOL1 stable inducible cell line Clone used: G1 DC3.25 Tissue Culture Media Cell Culture Medium • DMEM+10% FBS+P/S+5 μg/mL blasticidin+1 μg/mL puromycin. • 500 mL DMEM+55 mL FBS+5 mL P/S+280 μL blasticidin S HCl (10 mg/mL)+56 μL puromycin (10 mg/mL). Cell Assay Medium • DMEM with 2% FBS+penicillin streptomycin. Reagents:
Instruments and Equipment • Nuaire cell culture hood, Cat. No. 540-600 • 37° C./5% CO2 incubator link to robotic arm, Liconic: STX110 • Molecular Devices FLIPR^Tetra High throughput cellular screening system, Cat. No. FT0324, Molecular Devices • ThermoFisher MultiDrop 384, Cat. No. 5840300 • Biotek Microfill, Cat. No. ASF1000A-4145 • BioRad TC10 cell counter, Cat. No. 145-0010 Assay Procedures Cells Scaled Up from Frozen Vials • APOL1 G1 3.25 (HEK293 T-Rex) frozen vials: 5 million cells per vial • Step 1, Day 1: Defrost frozen vial into T-225. • Step 2, Day 5: (when 85% confluent): Split one T-225 at 3×10^6 cells per flask. • Step 3, Day 8: Splits cells to set up for the assay plates as described below. Cell Culture
T-Rex APOL1 HEK cells are split twice per week to keep the confluence state below 85% of the culture flask surface area. Cells can be kept until passage 25.
• DMEM high glucose+10% FBS, +P/S, +5 μg/mL blasticidin, +1 μg/mL puromycin. • 500 mL DMEM, +55 mL FBS, +5 mL P/S, +280 μL blasticidin 10 mg/mL, +56 μL Puromycin 10 mg/mL. Assay Media • Opti-MEM reduced serum medium from Invitrogen. Day 1 Preparation of Cell Assay Plates • Culture medium is removed from the x cm^2 T-flask by aspiration. • The cell monolayer is rinsed with PBS 1× at room temperature. PBS is removed by aspiration. • Cells are trypsinized using Trypsin. • The flasks are incubated at room temperature for 2-3 minutes. • Complete DMEM medium is then added. Cell suspension is then transferred to a 50 mL Falcon polypropylene tube. • Cells are then counted using a BioRad TC10 cell counter and the required amount of cells are centrifuged at 1200 RPM for 5 minutes. Required amount is 1.3×10^6 cells/mL APOL1 T-Rex HEK cells. • The pellet is suspended in the assay medium. • Using the MultiDrop, add 20 μL to each well (corresponds to 26000 cells total per well) of a 384-well black, transparent, flat bottom Poly-D coated plate. • Tetracycline as prepared in the following section is added to the cells before plating to induce APOL1 expression. • Plates are left at room temperature for 20 to 30 minutes before incubation at 37° C. and 5% CO2. […]

Row | IC50 [µM] | SMILES
1 | > 1 | O=C1CCC(C(=O)N[C@H]2C[C@H](c3c(-c4ccc(F)cc4)[nH]c4c(F)cc(F)cc43)C2)CN1 (stereo partly drawn) [Compound 90]
2 | > 1 | O=C(CC1CC(F)(F)C1)N[C@H]1C[C@H](c2c(-c3ccc(F)cc3)[nH]c3c(F)cc(F)cc32)C1 [Compound 98]
3 | > 1 | CC[C@@H](CO)NCC1CC(c2c(-c3ccc(F)cc3)[nH]c3c(F)cc(F)cc23)C1 (stereo partly drawn) [Compound 395]
4 | > 1 | O=C(CC1CCOCC1)N[C@H]1C[C@@H](c2c(-c3ccc(F)cc3)[nH]c3c(F)cc(F)cc32)C1 [Compound 34]
5 | > 1 | NC1(C(=O)NC[C@H]2C[C@H](c3c(-c4ccc(F)cc4)[nH]c4c(F)cc(F)cc43)C2)CCC1 [Compound 244]
6 | > 1 | CN(C)CCC(=O)N[C@H]1C[C@H](c2c(-c3ccc(F)cc3)[nH]c3c(F)cc(F)cc32)C1 [Compound 122]
7 | > 1 | CN1CCCC(CC(=O)N[C@H]2C[C@H](c3c(-c4ccc(F)cc4)[nH]c4c(F)cc(F)cc43)C2)C1 (stereo partly drawn) [Compound 104]
8 | > 1 | O=C1CCC(C(=O)NC[C@H]2C[C@@H](c3c(-c4ccc(F)cc4)[nH]c4c(F)cc(F)cc43)C2)CN1 (stereo partly drawn) [Compound 328]
9 | > 1 | O=S(=O)(NC[C@H]1C[C@H](c2c(-c3ccc(F)cc3)[nH]c3c(F)cc(F)cc32)C1)N[C@@H]1CCC[C@H]1O [Compound 348]
10 | 0.25 to 1 | O[C@H]1C[C@@H](c2c(-c3ccc(F)cc3)[nH]c3c(F)cc(F)cc32)C1 [Compound 175, (1s,3s)-3-(5,7-difluoro-2-(4-fluorophenyl)-1H-indol-3-yl)cyclobutan-1-ol]
11 | > 1 | C[C@@H](NC(=O)OC(C)(C)C)C(=O)NC[C@H]1C[C@H](c2c(-c3ccc(F)cc3)[nH]c3c(F)cc(F)cc32)C1 [Compound 295]
12 | > 1 | CO[C@H](C)C(=O)NC[C@H]1C[C@H](c2c(-c3ccc(F)cc3)[nH]c3c(F)cc(F)cc32)C1 [Compound 240]
13 | < 0.25 | NS(=O)(=O)NC[C@H]1C[C@H](c2c(-c3ccc(F)cc3)[nH]c3c(F)cc(F)cc32)C1 [Compound 372]
14 | 0.25 to 1 | NC(=O)C(=O)N1CC(Cc2c(-c3ccc(F)cc3)[nH]c3c(F)cc(F)cc23)C1 [Compound 455, 2-[3-[[5,7-difluoro-2-(4-fluorophenyl)-1H-indol-3-yl]methyl]azetidin-1-yl]-2-oxo-acetamide]
15 | < 0.25 | O=C1CC(C(=O)N[C@H]2C[C@H](c3c(-c4ccc(F)cc4)[nH]c4c(F)cc(F)cc43)C2)C(=O)N1 (stereo partly drawn) [Compound 128]
16 | > 1 | CC(=O)Nc1ccn(C2CC(c3c(-c4ccc(F)cc4)[nH]c4c(F)cc(F)cc34)C2)n1 (stereo not drawn) [Compound 19, N-[1-[3-[5,7-difluoro-2-(4-fluorophenyl)-1H-indol-3-yl]cyclobutyl]pyrazol-3-yl]acetamide]
17 | > 1 | O=C(C1CC1)N1CCC(Cc2c(-c3ccc(F)cc3)[nH]c3c(F)cc(F)cc23)C1 (stereo not drawn) [Compound 445, Cyclopropyl-[3-[[5,7-difluoro-2-(4-fluorophenyl)-1H-indol-3-yl]methyl]pyrrolidin-1-yl]methanone]
18 | > 1 | O=C1c2ccccc2C(=O)N1CCS(=O)(=O)NC[C@H]1C[C@H](c2c(-c3ccc(F)cc3)[nH]c3c(F)cc(F)cc32)C1 [Compound 420]
19 | 0.25 to 1 | Fc1ccc(-c2[nH]c3c(F)cc(F)cc3c2C2CC(CNCC(F)F)C2)cc1 (stereo not drawn) [Compound 379]
20 | 0.25 to 1 | O=C(c1c[nH]cn1)N1CC(c2c(-c3ccc(F)cc3)[nH]c3c(F)cc(F)cc23)C1 [Compound 441, (3-(5,7-difluoro-2-(4-fluorophenyl)-1H-indol-3-yl)azetidin-1-yl)(1H-imidazol-4-yl)methanone]

Row | IC50 [µM] | SMILES
21 | 0.25 to 1 | Cc1nc[nH]c1C(=O)NC1CC(Cc2c(-c3ccc(F)cc3)[nH]c3c(F)cc(F)cc23)C1 (stereo not drawn) [Compound 162]
22 | > 1 | O=C(CCN1CCCCC1)N[C@H]1C[C@@H](c2c(-c3ccc(F)cc3)[nH]c3c(F)cc(F)cc32)C1 [Compound 61]
23 | > 1 | CN1CCC(CC(=O)NC[C@H]2C[C@@H](c3c(-c4ccc(F)cc4)[nH]c4c(F)cc(F)cc43)C2)C1 (stereo partly drawn) [Compound 260]
24 | > 1 | COC1(CC(=O)N[C@H]2C[C@@H](c3c(-c4ccc(F)cc4)[nH]c4c(F)cc(F)cc43)C2)CCC1 [Compound 37]
25 | > 1 | NC(C(=O)NC[C@H]1C[C@H](c2c(-c3ccc(F)cc3)[nH]c3c(F)cc(F)cc32)C1)C(F)(F)F (stereo partly drawn) [Compound 233]
26 | > 1 | Cc1nccn1CC(=O)N[C@H]1C[C@H](c2c(-c3ccc(F)cc3)[nH]c3c(F)cc(F)cc32)C1 [Compound 126]
27 | > 1 | O=C(CC1(O)CCCCC1)NC[C@H]1C[C@@H](c2c(-c3ccc(F)cc3)[nH]c3c(F)cc(F)cc32)C1 [Compound 316]
28 | > 1 | CC(C)(C)OC(=O)NC1(C(=O)NC[C@H]2C[C@H](c3c(-c4ccc(F)cc4)[nH]c4c(F)cc(F)cc43)C2)CCC1 [Compound 286]
29 | > 1 | CC(=O)NC1CCC(c2c(-c3ccc(F)cc3)[nH]c3c(F)cc(F)cc23)CC1 (stereo not drawn) [Compound 435, N-(4-(5,7-difluoro-2-(4-fluorophenyl)-1H-indol-3-yl)cyclohexyl)acetamide]
30 | > 1 | O=C(CC1CCCOC1)NC[C@H]1C[C@@H](c2c(-c3ccc(F)cc3)[nH]c3c(F)cc(F)cc32)C1 (stereo partly drawn) [Compound 323]
31 | < 0.25 | O=S(=O)(NCCO)NC[C@H]1C[C@H](c2c(-c3ccc(F)cc3)[nH]c3c(F)cc(F)cc32)C1 [Compound 339]
32 | > 1 | O=C(CC1CC(F)(F)C1)N[C@H]1C[C@@H](c2c(-c3ccc(F)cc3)[nH]c3c(F)cc(F)cc32)C1 [Compound 31]
33 | > 1 | O=C(CN1CCOCC1)N[C@H]1C[C@H](c2c(-c3ccc(F)cc3)[nH]c3c(F)cc(F)cc32)C1 [Compound 121]
34 | 0.25 to 1 | O=C1NC(=O)C(CCS(=O)(=O)N[C@H]2C[C@H](c3c(-c4ccc(F)cc4)[nH]c4c(F)cc(F)cc43)C2)N1 (stereo partly drawn) [Compound 151]
35 | > 1 | CO[C@@H](C)C(=O)NC[C@H]1C[C@H](c2c(-c3ccc(F)cc3)[nH]c3c(F)cc(F)cc32)C1 [Compound 270]
36 | > 1 | CC1(C)CCC(C(=O)N[C@H]2C[C@@H](c3c(-c4ccc(F)cc4)[nH]c4c(F)cc(F)cc43)C2)N1 (stereo partly drawn) [Compound 64]
37 | > 1 | O=C1C=C(NC[C@H]2C[C@H](c3c(-c4ccc(F)cc4)[nH]c4c(F)cc(F)cc43)C2)C(=O)N1 [Compound 421, 3-((((1r,3r)-3-(5,7-difluoro-2-(4-fluorophenyl)-1H-indol-3-yl)cyclobutyl)methyl)amino)-1H-pyrrole-2,5-dione]
38 | 0.25 to 1 | O=C1CC(CNS(=O)(=O)NC[C@H]2C[C@H](c3c(-c4ccc(F)cc4)[nH]c4c(F)cc(F)cc43)C2)CN1 (stereo partly drawn) [Compound 368]
39 | > 1 | O=C(CC1COC1)NC[C@H]1C[C@@H](c2c(-c3ccc(F)cc3)[nH]c3c(F)cc(F)cc32)C1 [Compound 319]
